ChEMBL document CHEMBL5726441, “Isoindolone derivatives” (2017)

These compounds were tested against Bromodomain-containing protein 4 (Homo sapiens, UniProt O60885) (assay: TR-FRET Assay: Compound dilution series were prepared in DMSO via a 3-fold serial dilution from 2.5 mM to 42 nM. Compounds were then diluted 6:100 in assay buffer (20 mM Sodium Phosphate, pH 6.0, 50 mM NaCl, 1 mM EDTA, 0.01% Triton X-100, 1 mM DTT) to yield 3× working solutions. Six microliters (μL) of the working solution was then transferred to white, low-volume assay plates (Costar #3673). A 1.5× assay mixture containing His-tagged bromodomain, Europium-conjugated anti-His antibody (Invitrogen PV5596) and the Alexa-647-conjugated probe molecule was also prepared. Twelve μL of this solution were added to the assay plate to reach a final volume of 18 μL. The final concentration of 1× assay buffer contains 2% DMSO, 50 μM−0.85 nM compound, 8 nM bromodomain, 1 nM antibody and 100 or 30 nM probe (for BDI or BDII, respectively). After a one-hour incubation at room temperature, TR-FRET ratios were determined using an Envision multilabel plate reader (Ex 340, Em 495/520).TR-FRET data were normalized to the means of 24 no-compound controls (high) and 8 controls containing 1 μM un-labeled probe (low). Percent inhibition was plotted as a function of compound concentration and the data were fit with the 4 parameter logistic equation to obtain IC50s Inhibition constants (Ki) were calculated from the IC50s, probe Kd and probe concentration. Typical Z′ values were between 0.65 and 0.75. The minimum significant ratio was determined to evaluate assay reproducibility (Eastwood et al., (2006) J Biomol Screen, 11: 253-261).).

Point of comparison: `Cc1[nH]c(-c2ccccc2CN2C(=O)c3ccccc3C2=O)c2c1C(=O)CCC2`, Ki 6.22 µM. Against it:
- Cc1[nH]c(-c2cccc3ccccc23)c2c1C(=O)CCC2 — 6.6-fold lower, 0.943 µM
- Cc1[nH]c(-c2ccccc2Oc2ccccc2)c2c1C(=O)CC(CC(C)C)C2 (stereo not drawn) — 1.7-fold lower, 3.62 µM
